Source: patent US8829007B2 (priority 2009, dated 2014)
Read-outs that look alike come from different tables or passages of the source.

Experiments:
[1] = test system: influenza A virus (A/PR/8/34); experiment: microbe, parasite or virus in culture; format: cell-based
[2] = test system: A/PR/8/34 influenza virus; experiment: microbe, parasite or virus in culture; format: cell-based
[3] = Influenza A virus, PR/8, MDCK, MDCK cells infected with A/PR/8/34, survival of infected cells, class symbols, read-out: IC50 (mean all)
[4] = Influenza A virus, PR/8, MDCK, MDCK cells infected with A/PR/8/34, replication of influenza virus (viral RNA, bDNA), class symbols, read-out: EC50 (mean all)
[5] = Influenza A virus, PR/8, MDCK, MDCK cells infected with A/PR/8/34, cell protection (CPE), read-out: IC50 (mean all)
[6] = Influenza A virus, PR/8, MDCK, MDCK cells infected with A/PR/8/34, bDNA viral RNA, read-out: EC50 (mean all)
[7] = mean all, MDCK cells infected with A/PR/8/34, cell protection (CPE), read-out: IC50
[8] = mean all, bDNA viral RNA in MDCK cells infected with A/PR/8/34, read-out: EC50

CN(C)C(=O)N1CCCC(Nc2nc(-c3c[nH]c4ncc(Cl)cc34)ncc2F)CC1 (stereo not drawn) [Compound 499, 4-(2-(5-chloro-1H-pyrrolo[2,3-b]pyridin-3-yl)-5-fluoropyrimidin-4-ylamino)-N,N-dimethylazepane-1-carboxamide]
IC50 [1, 3]: < 5 µM | EC50 [2, 4]: < 5 µM

O=C(Cc1cccnc1)N1CCC[C@@H](CNc2nc(-c3c[nH]c4ncc(Cl)cc34)ncc2F)C1 [Compound 47, (S)-1-(3-((2-(5-chloro-1H-pyrrolo[2,3-b]pyridin-3-yl)-5-fluoropyrimidin-4-ylamino)methyl)piperidin-1-yl)-2-(pyridin-3-yl)ethanone]
IC50 [1, 5]: < 5 µM | EC50 [2, 6]: < 5 µM

(1S,3R)—N1-(5-fluoro-2-(5-fluoro-1H-pyrrolo[2,3-b]pyridin-3-yl)pyrimidin-4-yl)-N3-(pyrazin-2-yl)cyclohexane-1,3-diamine [Compound 985]
IC50 ([1]; MDCK cells, A/PR/8/34, ATP readout, mean all, read-out: Cell Flu, MDCK protection, ATP (All: IC50: uM)(Mean (All))): < 5 µM | EC50 ([2]; HA(−) 30 hr, A/PR/8, bDNA, mean all, read-out: Cell Influenza HA(−) 30 hr A/PR/8 bDNA:bDNA EC50 uM(Mean (All))): < 5 µM

Fc1cnc(-c2c[nH]c3ncc(Cl)cc23)nc1NC1CCCN(Cc2cnc[nH]2)C1 (stereo not drawn) [Compound 594, N-(1-((1H-imidazol-5-yl)methyl)piperidin-3-yl)-2-(5-chloro-1H-pyrrolo[2,3-b]pyridin-3-yl)-5-fluoropyrimidin-4-amine]
IC50 [1, 3]: < 5 µM | EC50 [2, 4]: < 5 µM

O=C(O)[C@H]1C2CCC(CC2)[C@@H]1Nc1nc(-c2c[nH]c3ncc(F)cc23)ncc1F [Compound 1070, (2S,3S)-3-((2-(5-fluoro-1H-pyrrolo[2,3-b]pyridin-3-yl)-5-fluoropyrimidin-4-yl)amino)bicyclo[2.2.2]octane-2-carboxylic acid]
IC50 ([1]; Influenza A virus, PR/8, MDCK, MDCK cells, A/PR/8/34, ATP readout, mean all, read-out: Cell Flu, MDCK protection, ATP (All: IC50: uM)(Mean (All))): < 5 µM | EC50 ([2]; Influenza A virus, PR/8, 30 h, HA(−) 30 hr, A/PR/8, bDNA, mean all, read-out: Cell Influenza HA(−) 30 hr A/PR/8 bDNA:bDNA EC50 uM(Mean (All))): < 5 µM

Cc1cnc(-c2c[nH]c3ncc(Cl)cc23)nc1N[C@H]1CCCN(CC(N)=O)C1 [Compound 620]
IC50 ([1]; Influenza A virus, PR/8, MDCK, CPE assay, A/PR/8/34 infected MDCK cells, class symbols, read-out: IC50 (mean all)): 5 to 20 µM | EC50 ([2]; Influenza A virus, PR/8, MDCK, bDNA assay, A/PR/8/34 influenza virus replication in MDCK cells, class symbols, read-out: EC50 (mean all)): < 5 µM

C#CCOC(=O)N1CCCC[C@H]1CNc1nc(-c2c[nH]c3ncc(Cl)cc23)ncc1F [Compound 164, (S)-prop-2-ynyl 2-((2-(5-chloro-1H-pyrrolo[2,3-b]pyridin-3-yl)-5-fluoropyrimidin-4-ylamino)methyl)piperidine-1-carboxylate]
IC50 [1, 5]: > 20 µM | EC50 [2, 6]: < 5 µM

NC1CCCCC1Nc1nc(-c2c[nH]c3ncc(Cl)cc23)ncc1F (stereo not drawn) [Compound 414]
IC50 ([1]; mean all, A/PR/8/34 infected MDCK cells, CPE assay, read-out: IC50): < 5 µM | EC50 ([2]; mean all, A/PR/8/34 influenza virus in MDCK cells, bDNA assay, read-out: EC50): < 5 µM

O=C(O)[C@@H]1CCCC[C@@H]1Nc1nc(-c2c[nH]c3ncc(Cl)cc23)ncc1F [Compound 578, (1R,2S)-2-(2-(5-chloro-1H-pyrrolo[2,3-b]pyridin-3-yl)-5-fluoropyrimidin-4-ylamino)cyclohexanecarboxylic acid]
IC50 [1, 3]: < 5 µM | EC50 [2, 4]: < 5 µM

COC(=O)NC1CCCC(Nc2nc(-c3c[nH]c4ncc(F)cc34)ncc2F)C1 (stereo not drawn) [Compound 705]
IC50 [1, 7]: < 5 µM | EC50 [2, 8]: < 5 µM

CC(C)NC(=O)N1CCC[C@@H](CNc2nc(-c3c[nH]c4ncc(Cl)cc34)ncc2F)C1 [Compound 27, (S)-3-((2-(5-chloro-1H-pyrrolo[2,3-b]pyridin-3-yl)-5-fluoropyrimidin-4-ylamino)methyl)-N-isopropylpiperidine-1-carboxamide]
IC50 [1, 5]: < 5 µM | EC50 [2, 6]: < 5 µM

Fc1cnc(-c2c[nH]c3ncc(Cl)cc23)nc1NC1CCCN(CC2CCOC2)C1 (stereo not drawn) [Compound 622]
IC50 ([1]; CPE assay, A/PR/8/34 infected MDCK cells, class symbols, read-out: IC50 (mean all)): < 5 µM | EC50 ([2]; bDNA assay, A/PR/8/34 influenza virus replication in MDCK cells, class symbols, read-out: EC50 (mean all)): < 5 µM

O=C(O)C1CCCCC1Nc1nc(-c2c[nH]c3ncc(Cl)cc23)nc(C(O)CO)c1F (stereo not drawn) [Compound 687]
IC50 [1, 7]: < 5 µM | EC50 [2, 8]: > 3.3 µM

CS(=O)(=O)N1CCC[C@@H](CNc2nc(-c3c[nH]c4ncc(Cl)cc34)ncc2F)C1 [Compound 36, (S)-2-(5-chloro-1H-pyrrolo[2,3-b]pyridin-3-yl)-5-fluoro-N-((1-(methylsulfonyl)-piperidin-3-yl)methyl)pyrimidin-4-amine]
IC50 [1, 5]: < 5 µM | EC50 [2, 6]: < 5 µM

O=C1NCCOCC1Nc1nc(-c2c[nH]c3ncc(Cl)cc23)ncc1F (stereo not drawn) [Compound 513, 6-(2-(5-chloro-1H-pyrrolo[2,3-b]pyridin-3-yl)-5-fluoropyrimidin-4-ylamino)-1,4-oxazepan-5-one]
IC50 [1, 3]: 5 to 20 µM | EC50 [2, 4]: < 5 µM
